In PubChem BioAssay (NCI):
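Dose response: 5 concentrations. Exposure: 48 h. Format: 96-well plates. Endpoint: linear interpolation; highest concentration if not reached. TGI: concentration producing complete growth inhibition.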

How the values were obtained:
Test in all cases: DTP human tumour cell line panel, 48 h
SW-620 colon = test system: SW-620 colon
HOP-92 NSCLC = test system: HOP-92 NSCLC
OVCAR-5 ovarian = test system: OVCAR-5 ovarian
MCF7 breast = test system: MCF7 breast
COLO 205 colon = test system: COLO 205 colon
786-0 renal = test system: 786-0 renal
U251 CNS = test system: U251 CNS
EKVX NSCLC = test system: EKVX NSCLC
T-47D breast = test system: T-47D breast
SF-268 CNS = test system: SF-268 CNS
LOX IMVI melanoma = test system: LOX IMVI melanoma
MDA-MB-231 breast = test system: MDA-MB-231 breast
MDA-MB-435 = test system: MDA-MB-435
IGROV1 ovarian = test system: IGROV1 ovarian
HCT-116 colon = test system: HCT-116 colon
OVCAR-4 ovarian = test system: OVCAR-4 ovarian
OVCAR-8 ovarian = test system: OVCAR-8 ovarian
UACC-62 melanoma = test system: UACC-62 melanoma
BT-549 breast = test system: BT-549 breast
CAKI-1 renal = test system: CAKI-1 renal
SNB-19 CNS = test system: SNB-19 CNS
UO-31 renal = test system: UO-31 renal
KM12 colon = test system: KM12 colon
K-562 leukemia = test system: K-562 leukemia
M14 melanoma = test system: M14 melanoma
SK-MEL-5 melanoma = test system: SK-MEL-5 melanoma
A549 NSCLC = test system: A549 NSCLC
MOLT-4 leukemia = test system: MOLT-4 leukemia
NCI-H226 lung = test system: NCI-H226 lung
NCI-H23 lung = test system: NCI-H23 lung
SF-295 CNS = test system: SF-295 CNS
SK-MEL-28 melanoma = test system: SK-MEL-28 melanoma
RPMI-8226 leukemia = test system: RPMI-8226 leukemia
NCI/ADR-RES ovarian = test system: NCI/ADR-RES ovarian
HT29 colon = test system: HT29 colon
HOP-62 NSCLC = test system: HOP-62 NSCLC
HCT-15 colon = test system: HCT-15 colon
CCRF-CEM leukemia = test system: CCRF-CEM leukemia
UACC-257 melanoma = test system: UACC-257 melanoma
DU-145 prostate = test system: DU-145 prostate
TK-10 renal = test system: TK-10 renal
SK-MEL-2 melanoma = test system: SK-MEL-2 melanoma
PC-3 prostate = test system: PC-3 prostate
OVCAR-3 ovarian = test system: OVCAR-3 ovarian
MALME-3M melanoma = test system: MALME-3M melanoma
HL-60(TB) leukemia = test system: HL-60(TB) leukemia
NCI-H460 lung = test system: NCI-H460 lung
HS 578T breast = test system: HS 578T breast
NCI-H522 lung = test system: NCI-H522 lung
SN12C renal = test system: SN12C renal

## CC(C)=NN/C(=N\S(=O)(=O)c1cc2ccccc2s1)Nc1ccc(Cl)cc1
SW-620 colon
  TGI: > 100 µM
HOP-92 NSCLC
  TGI: > 100 µM
OVCAR-5 ovarian
  TGI: > 100 µM
MCF7 breast
  TGI: > 100 µM
COLO 205 colon
  TGI: > 100 µM
786-0 renal
  TGI: > 100 µM
U251 CNS
  TGI: > 100 µM
EKVX NSCLC
  TGI: 60.2 µM
T-47D breast
  TGI: 76.3 µM
SF-268 CNS
  TGI: > 100 µM
LOX IMVI melanoma
  TGI: > 100 µM
MDA-MB-231 breast
  TGI: > 100 µM
MDA-MB-435
  TGI: > 100 µM
IGROV1 ovarian
  TGI: > 100 µM
HCT-116 colon
  TGI: > 100 µM
OVCAR-4 ovarian
  TGI: > 100 µM
OVCAR-8 ovarian
  TGI: > 100 µM
UACC-62 melanoma
  TGI: > 100 µM
BT-549 breast
  TGI: > 100 µM
CAKI-1 renal
  TGI: > 100 µM
SNB-19 CNS
  TGI: > 100 µM
UO-31 renal
  TGI: > 100 µM
KM12 colon
  TGI: > 100 µM
K-562 leukemia
  TGI: > 100 µM
M14 melanoma
  TGI: > 100 µM
SK-MEL-5 melanoma
  TGI: > 100 µM
A549 NSCLC
  TGI: > 100 µM
MOLT-4 leukemia
  TGI: > 100 µM
NCI-H226 lung
  TGI: > 100 µM
NCI-H23 lung
  TGI: > 100 µM
SF-295 CNS
  TGI: > 100 µM
SK-MEL-28 melanoma
  TGI: > 100 µM
RPMI-8226 leukemia
  TGI: > 100 µM
NCI/ADR-RES ovarian
  TGI: > 100 µM
HT29 colon
  TGI: > 100 µM
HOP-62 NSCLC
  TGI: > 100 µM
HCT-15 colon
  TGI: > 100 µM
CCRF-CEM leukemia
  TGI: > 100 µM
UACC-257 melanoma
  TGI: > 100 µM
DU-145 prostate
  TGI: > 100 µM
TK-10 renal
  TGI: > 100 µM
SK-MEL-2 melanoma
  TGI: > 100 µM
PC-3 prostate
  TGI: > 100 µM
OVCAR-3 ovarian
  TGI: > 100 µM
MALME-3M melanoma
  TGI: > 100 µM
HL-60(TB) leukemia
  TGI: > 100 µM
NCI-H460 lung
  TGI: > 100 µM
HS 578T breast
  TGI: > 100 µM
NCI-H522 lung
  TGI: > 100 µM
SN12C renal
  TGI: > 100 µM
